Assay results published in PubChem BioAssay (NCI).
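Assay format: 96-well plates, 48-hour exposure. At the TGI there is no net growth.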

Assays:
Test in all cases: DTP human tumour cell line panel, 48 h
SW-620 colon = tested on: SW-620 colon
M14 melanoma = tested on: M14 melanoma
CCRF-CEM leukemia = tested on: CCRF-CEM leukemia
HOP-62 NSCLC = tested on: HOP-62 NSCLC
HT29 colon = tested on: HT29 colon
SK-MEL-28 melanoma = tested on: SK-MEL-28 melanoma
DMS 114 small cell lung = tested on: DMS 114 small cell lung
K-562 leukemia = tested on: K-562 leukemia
XF 498 CNS = tested on: XF 498 CNS
KM20L2 colon = tested on: KM20L2 colon
IGROV1 ovarian = tested on: IGROV1 ovarian
HCC-2998 colon = tested on: HCC-2998 colon
SR leukemia = tested on: SR leukemia
A549 NSCLC = tested on: A549 NSCLC
UACC-62 melanoma = tested on: UACC-62 melanoma
OVCAR-4 ovarian = tested on: OVCAR-4 ovarian
OVCAR-5 ovarian = tested on: OVCAR-5 ovarian
SF-295 CNS = tested on: SF-295 CNS
U251 CNS = tested on: U251 CNS
UACC-257 melanoma = tested on: UACC-257 melanoma
OVCAR-3 ovarian = tested on: OVCAR-3 ovarian
SK-MEL-2 melanoma = tested on: SK-MEL-2 melanoma
RPMI-8226 leukemia = tested on: RPMI-8226 leukemia
HCT-15 colon = tested on: HCT-15 colon
MOLT-4 leukemia = tested on: MOLT-4 leukemia
SF-539 CNS = tested on: SF-539 CNS
A498 renal = tested on: A498 renal
SNB-19 CNS = tested on: SNB-19 CNS
SNB-75 CNS = tested on: SNB-75 CNS
DMS 273 small cell lung = tested on: DMS 273 small cell lung
EKVX NSCLC = tested on: EKVX NSCLC
786-0 renal = tested on: 786-0 renal
SK-MEL-5 melanoma = tested on: SK-MEL-5 melanoma
NCI-H23 lung = tested on: NCI-H23 lung
COLO 205 colon = tested on: COLO 205 colon
TK-10 renal = tested on: TK-10 renal
SN12C renal = tested on: SN12C renal
RXF-631 renal = tested on: RXF-631 renal
SK-OV-3 ovarian = tested on: SK-OV-3 ovarian
HOP-18 NSCLC = tested on: HOP-18 NSCLC
HL-60(TB) leukemia = tested on: HL-60(TB) leukemia
NCI-H460 lung = tested on: NCI-H460 lung
LOX IMVI melanoma = tested on: LOX IMVI melanoma
M19-MEL melanoma = tested on: M19-MEL melanoma
OVCAR-8 ovarian = tested on: OVCAR-8 ovarian
NCI-H522 lung = tested on: NCI-H522 lung
ACHN renal = tested on: ACHN renal
CAKI-1 renal = tested on: CAKI-1 renal
LXFL 529 NSCLC = tested on: LXFL 529 NSCLC
UO-31 renal = tested on: UO-31 renal
KM12 colon = tested on: KM12 colon
HOP-92 NSCLC = tested on: HOP-92 NSCLC
MALME-3M melanoma = tested on: MALME-3M melanoma
DLD-1 colon = tested on: DLD-1 colon
NCI-H226 lung = tested on: NCI-H226 lung
SF-268 CNS = tested on: SF-268 CNS
HCT-116 colon = tested on: HCT-116 colon
RXF 393 renal = tested on: RXF 393 renal
SNB-78 CNS = tested on: SNB-78 CNS

Measured: TGI

COc1ccc(OC)c(NC(=O)CCC/C(CC(=O)c2ccc(O)c(OC)c2)=N\NC(=O)C[N+](C)(C)C)c1
> 100 µM: SW-620 colon | M14 melanoma | CCRF-CEM leukemia | HOP-62 NSCLC | HT29 colon | SK-MEL-28 melanoma | DMS 114 small cell lung | K-562 leukemia | XF 498 CNS | KM20L2 colon | IGROV1 ovarian | HCC-2998 colon | SR leukemia | A549 NSCLC | UACC-62 melanoma | OVCAR-4 ovarian | OVCAR-5 ovarian | SF-295 CNS | U251 CNS | UACC-257 melanoma | OVCAR-3 ovarian | SK-MEL-2 melanoma | RPMI-8226 leukemia | HCT-15 colon | MOLT-4 leukemia | SF-539 CNS | A498 renal | SNB-19 CNS | SNB-75 CNS | DMS 273 small cell lung | EKVX NSCLC | 786-0 renal | SK-MEL-5 melanoma | NCI-H23 lung | COLO 205 colon | TK-10 renal | SN12C renal | RXF-631 renal | SK-OV-3 ovarian | HOP-18 NSCLC | HL-60(TB) leukemia | NCI-H460 lung | LOX IMVI melanoma | M19-MEL melanoma | OVCAR-8 ovarian | NCI-H522 lung | ACHN renal | CAKI-1 renal | LXFL 529 NSCLC | UO-31 renal | KM12 colon | HOP-92 NSCLC | MALME-3M melanoma | DLD-1 colon | NCI-H226 lung | SF-268 CNS

N#CC(c1ccccc1)c1nc2ccc(=N)cc-2n(O)c1C(C#N)c1ccccc1 (centres undefined)
> 100 µM: SW-620 colon | M14 melanoma | CCRF-CEM leukemia | HOP-62 NSCLC | HT29 colon | SK-MEL-28 melanoma | K-562 leukemia | XF 498 CNS | KM20L2 colon | IGROV1 ovarian | SR leukemia | A549 NSCLC | UACC-62 melanoma | OVCAR-4 ovarian | OVCAR-5 ovarian | SF-295 CNS | HCT-116 colon | U251 CNS | UACC-257 melanoma | OVCAR-3 ovarian | SK-MEL-2 melanoma | HCT-15 colon | MOLT-4 leukemia | SF-539 CNS | RXF 393 renal | A498 renal | SNB-19 CNS | DMS 273 small cell lung | EKVX NSCLC | 786-0 renal | NCI-H23 lung | SNB-78 CNS | COLO 205 colon | TK-10 renal | SN12C renal | RXF-631 renal | SK-OV-3 ovarian | HOP-18 NSCLC | HL-60(TB) leukemia | NCI-H460 lung | LOX IMVI melanoma | M19-MEL melanoma | OVCAR-8 ovarian | NCI-H522 lung | ACHN renal | CAKI-1 renal | LXFL 529 NSCLC | UO-31 renal | KM12 colon | MALME-3M melanoma | DLD-1 colon | NCI-H226 lung | SF-268 CNS
